This is an account of results in ChEMBL document CHEMBL4184269, “Novel aromatic sulfonyl naphthalene-based boronates as 20S proteasome inhibitors” (Bioorg Med Chem, 2018).

Series [1] deals with MCF7. Kind of series: Antiproliferative activity against human MCF7 cells after 72 hrs by SRB assay. The format is functional, cell-based. For orientation: The SRB assay estimates cell density from bound dye.
The test system of series [2] is MDA-MB-231. Kind of series: Antiproliferative activity against human MDA-MB-231 cells after 72 hrs by SRB assay. The format is functional, cell-based.
In series [3] the target is T1, Proteasome Macropain subunit MB1 (Homo sapiens) (UniProt P28074).
T1 sequence (whole entry): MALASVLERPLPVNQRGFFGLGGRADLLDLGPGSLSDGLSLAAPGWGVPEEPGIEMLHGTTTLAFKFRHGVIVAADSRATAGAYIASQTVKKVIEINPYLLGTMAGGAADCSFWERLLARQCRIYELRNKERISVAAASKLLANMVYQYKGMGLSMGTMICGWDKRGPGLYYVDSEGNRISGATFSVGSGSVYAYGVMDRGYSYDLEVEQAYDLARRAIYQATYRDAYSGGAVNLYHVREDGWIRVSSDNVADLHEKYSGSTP
Kind of series: Inhibition of chymotrypsin-like activity of human 20S proteasome at 100 nM using Suc-Leu-Leu-Val-Tyr-AMC as substrate by fluorescence assay relative to control.

Series [4] addresses T1, Proteasome Macropain subunit MB1 (Homo sapiens). In words: Inhibition of chymotrypsin-like activity of human 20S proteasome at 10 nM using Suc-Leu-Leu-Val-Tyr-AMC as substrate by fluorescence assay relative to control.
Series [5] is described as follows: Metabolic stability in Sprague-Dawley rat liver microsomes assessed as parent compound remaining at […] preincubated for 5 mins followed by NADPH addition measured after 40 mins by HPLC analysis. The format is ADME, microsome. Conditions: read-out: Stability.
The test system of series [6] is A549. Kind of series: Antiproliferative activity against human A549 cells after 72 hrs by SRB assay. The format is functional, cell-based.

By IC50 is commonly meant the midpoint of a concentration-inhibition curve. A high value points to lower potency. As a reminder, the inhibition is the change of the read-out against control, counted positive when it falls. Lower therefore signals a response near the control. Regarding `CC(C)C[C@H](NC(=O)CCSc1cc(NS(=O)(=O)c2cccs2)c2ccccc2c1O)B(O)O`, the IC50 in series [1] (Homo sapiens, MCF7, 72 h) worked out at 6.47 µM; in series [2] (Homo sapiens, MDA-MB-231, 72 h), 4.45 µM. The compound further displayed an inhibition in series [3] of 38.3%.
For the compound `CC(=O)Nc1ccc(S(=O)(=O)Nc2cc(SCCC(=O)N[C@@H](CC(C)C)B(O)O)c(O)c3ccccc23)cc1`, the IC50 was 6.62 µM in series [1] (Homo sapiens, MCF7, 72 h) and 2.12 µM in series [2] (Homo sapiens, MDA-MB-231, 72 h). Also, the inhibition in series [3] was found to be 38.4%.
In the same order, the values of `CC(C)C[C@H](NC(=O)CSc1cc(NS(=O)(=O)c2ccccc2)c2ccccc2c1O)B(O)O` are 4.16 µM, 10.6 µM and 32.5%.
The compound `CC(C)C[C@H](NC(=O)C(C)Sc1cc(NS(=O)(=O)c2ccc(Cl)cc2)c2ccccc2c1O)B(O)O` (stereo in doubt; 3c) [listing 1 of 2 here] had an inhibition in series [3] of 41.5%.
In series [3], `CC(C)C[C@H](NC(=O)C(C)Sc1cc(NS(=O)(=O)c2ccccc2)c2ccccc2c1O)B(O)O` (stereo in doubt; 3b-1) [listing 1 of 2 here] came in with an inhibition of 25.4%.
For `CC(=O)Nc1ccc(S(=O)(=O)Nc2cc(SC(C)C(=O)N[C@@H](CC(C)C)B(O)O)c(O)c3ccccc23)cc1` (stereo not given in full), the 50% inhibitory concentration (IC50) was 8.91 µM in series [1] (Homo sapiens, MCF7, 72 h) and 2.8 µM in series [2] (Homo sapiens, MDA-MB-231, 72 h). Besides, in series [3], the inhibition was 27.4%.
`CC(C)C[C@H](NC(=O)C(C)Sc1cc(NS(=O)(=O)c2ccc(Cl)cc2)c2ccccc2c1O)B(O)O` (stereo in doubt; 3c-1) [listing 1 of 2 here]: in series [3], the inhibition is 39.4%.
Still for that read-out and setting: the figure for `O=C(O)CSc1cc(NS(=O)(=O)c2cccs2)c2ccccc2c1O` is 6.86%.
Turning to `CC(=O)Nc1ccc(S(=O)(=O)Nc2cc(SCC(=O)N[C@@H](CC(C)C)B(O)O)c(O)c3ccccc23)cc1`, the IC50 is 8.66 µM in series [1] (Homo sapiens, MCF7, 72 h) and 4.45 µM in series [2] (Homo sapiens, MDA-MB-231, 72 h). The same compound showed an inhibition in series [3] of 40.8%.
For `CC(C)C[C@H](NC(=O)CCSc1cc(NS(=O)(=O)c2ccc(Cl)cc2)c2ccccc2c1O)B(O)O`, in that order: 6.91 µM, 4.09 µM and 52.5%.
As for `Cc1ccc(S(=O)(=O)Nc2cc(SCC(=O)N[C@@H](CC(C)C)B(O)O)c(O)c3ccccc23)cc1`, the half-maximal inhibitory concentration (IC50) came out at 12.8 µM in series [1] (Homo sapiens, MCF7, 72 h) and 14 µM in series [2] (Homo sapiens, MDA-MB-231, 72 h). This compound registered an inhibition in series [3] of 36.6%.
`C[S+](C)[O-]` had an inhibition in series [3] of 4.89%.
Still for that read-out and setting: as for `CC(C)C[C@H](NC(=O)C(C)Sc1cc(NS(=O)(=O)c2ccccc2)c2ccccc2c1O)B(O)O` (stereo in doubt; 3b) [listing 1 of 2 here], the figure is 22.6%.
For the compound `CC(C)C[C@H](NC(=O)CSc1cc(NS(=O)(=O)c2cccs2)c2ccccc2c1O)B(O)O`, the half-inhibitory concentration (IC50) came to 9.45 µM in series [1] (Homo sapiens, MCF7, 72 h) and 6.52 µM in series [2] (Homo sapiens, MDA-MB-231, 72 h). In series [3], the inhibition is 33.3%.
With `CC(C)C[C@H](NC(=O)[C@H](Cc1ccccc1)NC(=O)c1cnccn1)B(O)O` [BORTEZOMIB], the IC50 in series [1] (Homo sapiens, MCF7, 72 h) was determined as 18.4 µM; in series [2] (Homo sapiens, MDA-MB-231, 72 h), 3.12 µM. The same compound displayed an inhibition in series [4] of 51.2%. The remaining at 40 min in series [5] was 30%.
In the case of `CC(C)C[C@H](NC(=O)C(C)Sc1cc(NS(=O)(=O)c2ccc(Cl)cc2)c2ccccc2c1O)B(O)O` (stereo in doubt; 3c) [listing 2 of 2 here], the concentration for half-maximal inhibition (IC50) is 16.5 µM in series [6]; 10.1 µM in series [1] (Homo sapiens, MCF7, 72 h); 6.15 µM in series [2] (Homo sapiens, MDA-MB-231, 72 h).
In the case of `CC(C)C[C@H](NC(=O)CSc1cc(NS(=O)(=O)c2ccc(Cl)cc2)c2ccccc2c1O)B(O)O`, the IC50 is 10.4 µM in series [1] (Homo sapiens, MCF7, 72 h) and 6.19 µM in series [2] (Homo sapiens, MDA-MB-231, 72 h). Besides, the inhibition in series [3] came out at 45.1%.
Consider `CC(C)C[C@H](NC(=O)C(C)Sc1cc(NS(=O)(=O)c2ccc(Cl)cc2)c2ccccc2c1O)B(O)O` (stereo in doubt; 3c-1) [listing 2 of 2 here], for which the IC50 is 10.7 µM in series [1] (mcf7) and 6.46 µM in series [2] (mda-mb-231).
As to `CC(C)C[C@H](NC(=O)C(C)Sc1cc(NS(=O)(=O)c2cccs2)c2ccccc2c1O)B(O)O` (stereo not given in full), the IC50 in series [1] (Homo sapiens, MCF7, 72 h) is 14.7 µM; in series [2] (Homo sapiens, MDA-MB-231, 72 h), 7.45 µM. Besides, the inhibition in series [3] came out at 41.1%.
Take `Cc1ccc(S(=O)(=O)Nc2cc(SCCC(=O)N[C@@H](CC(C)C)B(O)O)c(O)c3ccccc23)cc1`: the IC50 stood at 6.94 µM in series [1] (Homo sapiens, MCF7, 72 h) and 6.15 µM in series [2] (Homo sapiens, MDA-MB-231, 72 h). In addition, the remaining at 40 min in series [5] was found to be 56%. Besides, in series [3], the inhibition is 54.2%.
Turning to `CC(C)C[C@H](NC(=O)C(C)Sc1cc(NS(=O)(=O)c2ccccc2)c2ccccc2c1O)B(O)O` (stereo in doubt; 3b-1) [listing 2 of 2 here], the IC50 in series [1] (mcf7) was 11.3 µM; in series [2] (mda-mb-231), 5.11 µM.
As for `CC(C)C[C@H](NC(=O)C(C)Sc1cc(NS(=O)(=O)c2ccccc2)c2ccccc2c1O)B(O)O` (stereo in doubt; 3b) [listing 2 of 2 here], the IC50 in series [6] is 4.48 µM; in series [1] (Homo sapiens, MCF7, 72 h), 16.5 µM; in series [2] (mda-mb-231) it was 11.1 µM.
As to `Cc1ccc(S(=O)(=O)Nc2cc(SC(C)C(=O)N[C@@H](CC(C)C)B(O)O)c(O)c3ccccc23)cc1` (stereo not given in full), the half-maximal inhibitory concentration (IC50) in series [1] (Homo sapiens, MCF7, 72 h) was 8.61 µM; in series [2] (Homo sapiens, MDA-MB-231, 72 h) it was 8.13 µM. The compound further returned an inhibition in series [3] of 35.5%.
In the case of `CC(C)C[C@H](NC(=O)CCSc1cc(NS(=O)(=O)c2ccccc2)c2ccccc2c1O)B(O)O`, the half-inhibitory concentration (IC50) came out at 7.46 µM in series [1] (Homo sapiens, MCF7, 72 h) and 4.2 µM in series [2] (Homo sapiens, MDA-MB-231, 72 h). In series [3], this compound showed an inhibition of 45.6%.
